Key:
[1] = test system: bile duct cannulated rats; assay: Excretion of heme and bilirubin in bile after infusion of heat-damaged erythrocytes; type: in vivo
[2] = test system: bile duct cannulated rats; assay: Output of biliary iron by graphite furnace atomic absorption analysis; type: in vivo; conditions: after administration of Sn-PP; representative study, typical of all animals studied
[3] = test system: bile duct cannulated rats; assay: Excretion of heme and bilirubin in bile after infusion of exogenous heme

| SMILES | biliary heme excretion ([1]; 8 rats, heat-damaged erythrocytes i.v. bolus (equivalent to 8.5 umol heme/kg b.w.) plus Sn-PP 10 umol/kg b.w. i.v., pyridine hemochromogen method) | combined amounts of heme plus bilirubin in bile ([1]; heat-damaged erythrocytes plus Sn-PP 10 umol/kg b.w. i.v., average, similar in the control group) | increase in biliary bilirubin output ([1]; heat-damaged erythrocytes plus Sn-PP 10 umol/kg b.w. i.v., in all but one Sn-PP treated animal) | output of biliary iron [2] | biliary heme excretion ([3]; 5 rats, heme 6.1 µmol/kg b.w. i.v. bolus plus Sn-PP 10 µmol/kg b.w. i.v. at the same time) | amounts of heme excreted in bile relative to control animals treated with heme alone ([3]; heme 6.1 µmol/kg b.w. plus Sn-PP 10 µmol/kg b.w. i.v.) | increase in biliary bilirubin resulting from the infusion of heme ([3]; heme 6.1 µmol/kg b.w. plus Sn-PP 10 µmol/kg b.w. i.v., all animals) | amounts of heme excreted in bile ([3]; heme 6.1 µmol/kg b.w. plus Sn-PP 10 µmol/kg b.w. i.v., mean) | total amount of exogenous heme recovered in the bile as both heme and bilirubin ([3]; heme alone, 6.1 µmol/kg b.w. i.v. bolus, average) | total amount of heme excreted in the bile ([3]; heme alone, 6.1 µmol/kg b.w. i.v. bolus, average of 5 rats) |
| --- | --- | --- | --- | --- | --- | --- | --- | --- | --- | --- |
| C=Cc1c2[n-]c(c1C)/C=c1\[n-]/c(c(C)c1C=C)=C\c1[n-]c(c(CCC(=O)O)c1C)C=c1[n-]/c(c(C)c1CCC(=O)O)=C\2.[Sn+4] [Sn-PP, tin protoporphyrin-IX] | prompt and marked increase | about 50 % of the dose of heme administered | greatly diminished | incresed markedly | prompt and marked increase | 3-4 fold | diminished | 51 % of the dose of heme injected | – | – |
| C=CC1=C(C)c2cc3[n-]c(cc4[n-]c(cc5nc(cc1n2)C(C)=C5C=C)c(C)c4CCC(=O)O)c(CCC(=O)O)c3C.[Fe+2] [heme, ferroprotoporphyrin IX] | – | – | – | – | – | – | – | – | 32 % of the dose administered | 14 % of the dose injected |
